Biological target: RsbU phosphatase domain (Mycobacterium tuberculosis, UniProt P9WLZ7)
Test: biochemical

Chain of RsbU phosphatase domain (P9WLZ7 190-397): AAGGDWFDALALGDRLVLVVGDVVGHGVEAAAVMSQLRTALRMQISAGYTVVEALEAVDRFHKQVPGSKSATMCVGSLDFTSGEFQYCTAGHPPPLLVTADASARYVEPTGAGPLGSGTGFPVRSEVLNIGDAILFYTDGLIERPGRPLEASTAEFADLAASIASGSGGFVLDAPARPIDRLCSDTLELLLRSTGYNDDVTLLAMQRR

In the case of O=P(O)(O)O [inorganic phosphate], the Ki is reported as 320 nM.

From PMC3662962 (Biochemical and biophysical research communications, 2010)
